What was measured:
[1] = Trace element solutions with different chelating agents: pH, color and precipitation; type: physicochemical; details: for color development and clarity of trace element solution after final mixing: after addition of Na2MoO4 and final mixing (EDTA: after pH adjustment to pH 4); for measured pH value of trace element solution: after addition of all salts and final mixing, chelating agent equimolar to divalent cations; for precipitation of trace element solution after storage for 24 h and pH adjustment to pH 6: storage 24 h at room temperature or 4° C., pH readjusted to pH 6; for complexation and precipitation compared with citrate (summary): trace element solutions
Text: A trace element solution was mixed together with one of the following chelating agents: citric acid, […], DTPA, EGTA, or […]. Therefore, at first each chelating agent was weight equimolar to the utilized divalent cations. […] After each compound supplementation the solutions were characterized regarding pH value, color and precipitation. After the addition of the last compound, i.e., Na2MoO4, the solutions were aliquoted. […] Afterwards samples were again characterized by pH value, color and precipitation behavior.

[2] = tested on: Bacillus licheniformis producing a subtilisin protease; experiment: Microtiter plate cultivation, biomass growth by scattered light; type: cell-based; details: μL scale; for development of biomass (scatter plot) / maximal biomass values lower compared to MGDA or NTA: 30° C., 48 h; for development of biomass (scatter plot): chelating agent equimolar; for higher scatter (growth and maximal scatter values) compared to citric acid, EGTA, HEEDTA, DTPA and EDTA: FIG. 1
Experimental: (§1) Glucose was supplied in total in an amount of 14 g/I for a cultivation time of 48 h. […] The different fermentation media were aliquoted to a BioLector Flowerplate/microtiter plate […] labs) 700 μL each and cultivated at 30° C., shaker frequency 1200 rpm for 48 h after inoculating with Bacillus licheniformis producing a subtilisin protease. During the cultivation oxygen partial pressure, pH and scattered light for biomass growth are measured online by optical sensors every 15 min.

[3] = tested on: Bacillus licheniformis producing a subtilisin protease; experiment: Protease formation in microtiter plate cultivation, casein based activity assay; type: cell-based; details: normalized activity units; for enzyme (protease) activity lower than with citrate: comparable for pH 6.7 and pH 7.7, μL scale; for enzyme (protease) activity compared with citrate: trace element solution pH 6.7 and pH 7.7, μL scale
Experimental: as §1, with “min. For characterization of protease formation enzyme activity was measured by casein based activity assay.” for “min.”

[4] = Fermentation medium with trace element solutions and different chelating agents: precipitation; type: physicochemical; details: for precipitation in fermentation medium, pH adjustment to 6: samples with pH adjustment to 6; for precipitation in fermentation medium, pH adjustment to 6 / precipitation in fermentation medium, pH adjustment to 7.7: 24 h storage; for precipitation in fermentation medium, pH adjustment to 7.7: samples with pH adjustment to 7.7
Experimental: A fermentation medium was mixed with different chelating agents. Therefore, deionized water, Ca(NO3)2*4 H2O, MgSO4*7H2O, NH4H2PO4, and KH2PO4 were mixed together in this certain order with the respective chelating agent. Each chelating agent was weight equimolar to the utilized divalent cations. Afterwards the pH is measured. All three media were aliquoted six times each. Three aliquots of each medium were adjusted to pH 6.7, the other three samples to pH 7.7. Samples were mixed with the trace element solutions as described in Example 1 and stored at 35° C., room temperature and 4° C. for 24 h. Then color formation and precipitation were characterized.

[5] = tested on: Bacillus licheniformis producing a subtilisin protease; experiment: Fed-batch cultivation process in 20 L scale, protease formation; type: cell-based; details: 20 L scale fed-batch; for STY (productivity), space time yield normalized to % / Titer (productivity), normalized to %: 37° C., pH 7.7, 2 mL/L chelating agent, citric acid = 100%
Experimental: The fermentation processes were conducted in a baffled stirred tank reactor (STR) with pH, pO2 and temperature probes in a medium with glucose as main carbon source and complex plant protein as N-source. The concentration of O2 and CO2 were monitored by gas analyses. For the cultivations, the fedbatch mode was chosen with a start working volume of 10 L. As bioreactors, 21 L steal vessels were used with 3 rushton turbines with 6 blades.
Medium preparation and sterilization for seed and main culture medium took place in the bioreactor, respectively. The medium contained complex plant protein, NH4H2PO4, KH2PO4, Mn(II)SO4*H2O, Fe(II)SO4*7H2O, MgSO4*7H2O, Ca(NO3)2*4 H2O, trace element solution as described above, antifoam and 2 mL/L MGDA or citric acid. pH was adjusted to pH 6.5. The medium was sterilized in the bioreactor under stirred conditions (600 rpm) for 60 min at 121° C. For inoculation with Bacillus licheniformis producing a subtilisin protease 2% of the starting working volume was used from a seed culture fermenter with the same medium. Seed culture cultivation was conducted at 37° C. and harvested during exponential growth phase after 16 h. The main cultivation was conducted at 37° C., with pO2 dependent stirred cascade from 350-1400 rpm, pH 7.7 and an aeration rate of 1.5 wvvm. The glucose feed was started 8 h after inocu lation.

Structure (SMILES)	color development and clarity of trace element solution after final mixing [1]	measured pH value of trace element solution [1]	precipitation of trace element solution after storage for 24 h and pH adjustment to pH 6 [1]	complexation and precipitation compared with citrate (summary) [1]	development of biomass (scatter plot) [2]	precipitation on supplementation of CuSO4 ([1]; during preparation of the trace element solution)	maximal biomass values lower compared to MGDA or NTA [2]	enzyme (protease) activity lower than with citrate [3]	precipitation of trace element solution after storage for 3 h at 4° C. ([1]; 3 h at 4° C.)	precipitation in fermentation medium, pH adjustment to 6 [4]	precipitation in fermentation medium, pH adjustment to 7.7 [4]	higher scatter (growth and maximal scatter values) compared to citric acid, EGTA, HEEDTA, DTPA and EDTA [2] [%]	enzyme (protease) activity compared with citrate [3]	product titer and space time yields versus citric acid [5]	STY (productivity), space time yield normalized to % [5] [%]	Titer (productivity), normalized to % [5] [%]	precipitation in fermentation medium ([4]; all samples, pH 6.7 and 7.7, 35° C., room temperature and 4° C. for 24 h)
O=C(O)CN(CCN(CC(=O)O)CC(=O)O)CCN(CC(=O)O)CC(=O)O [DTPA, diethylene triamine pentaacetic acid]	dark green and was a clear solution	2.6	no precipitation was detected	better results than citrate	no growth was detected	–	–	–	–	–	–	–	–	–	–	–	–
O=C(O)CN(CCN(CC(=O)O)CC(=O)O)CC(=O)O [EDTA, ethylene diamine tetraacetic acid]	blue and clear solution	3	no further precipitation was noticed	–	no growth was detected	strong white precipitates occurred	–	–	–	–	–	–	–	–	–	–	–
O=C(O)CN(CCOCCOCCN(CC(=O)O)CC(=O)O)CC(=O)O [EGTA, ethylene glycol tetraacetic acid]	dark blue and was a clear solution	2.7	the solution turned darker and brownish	–	biomass growth started delayed	–	about 20%	about 25%	–	–	–	–	–	–	–	–	–
O=C(O)CC[C@@H](C(=O)O)N(CC(=O)O)CC(=O)O [GLDA, glutamic acid N,N-diacetic acid]	light blue and was a crystal clear solution	3.7	precipitates were formed	–	–	–	–	–	precipitates were detected	–	–	–	–	–	–	–	–
O=C(O)CN(CCO)CCN(CC(=O)O)CC(=O)O [HEEDTA, hydroxyethylethylene diamine triacetic acid]	dark blue and was a clear solution	2.6	no precipitation was detected	better results than citrate	strong delayed growth and lower biomass development	–	–	60%	–	–	–	–	–	–	–	–	–
CC(C(=O)O)N(CC(=O)O)CC(=O)O (stereo not shown) [MGDA, methyl glycine diacetic acid]	green blue and crystal clear solution	2.8	Neither after storage for 24 h nor after pH adjustment to pH of 6 any precipitates occurred	better results than citrate	fastest growth and highest values	–	–	–	–	low precipitations	no precipitations occurred	20	on a comparable level as the prior art standard citrate	higher product titer and space time yields	110	104	–
O=C(O)CN(CC(=O)O)CC(=O)O [NTA, nitrilotriacetic acid]	emerald green and was a crystal clear solution	2.5	Neither after storage time of 24 h nor after pH adjustment to pH of 6 any precipitates occurred	better results than citrate	fastest growth and highest values	–	–	–	–	low precipitations	no precipitations occurred	20	on a comparable level as the prior art standard citrate	–	–	–	–
O=C(O)CC(O)(CC(=O)O)C(=O)O [citric acid]	emerald green and was a crystal clear solution	4.6	precipitates formed a red pellet	–	biomass growth started delayed	–	about 20%	–	–	–	–	–	–	–	100	100	strong precipitations in all samples

— patent US20190292514A1, “FERMENTATION MEDIUM COMPRISING CHELATING AGENT” (priority 2016, published 2019)
